The nature of series [1]: Test Example 5: pharmacokinetics in beagles (plasma EPA, LC/MS/MS). Further details: species or system male beagles. The settings on record: dog, in vivo, po, 600 mg. The method, then: The produced compositions or capsules (Examples 1, 3 and 5) were each orally administered to 6 male beagles (at the age of 2 to 6 years with the body weight of 8 to 13 kg, 3 Marshall beagles and 3 Nosan beagles) under fasting conditions, and blood EPA concentration was evaluated. […] The control group was administered with the EPA-E stock solution encapsulated in a capsule.

The conditions of series [2]: human, in vivo, po, 1800 mg.
Procedure: (§1) The capsule having the self-emulsifying composition of the present invention containing 80% by weight of EPA-E as its content was orally administered to human (12 cases, healthy adult males of 20 to 40 years old with a body weight of 55.0 to 77.0 kg and a BMI of 18.5 or more but less than 25.0) under fasting conditions to evaluate the change of blood EPA concentration. The self-emulsifying composition in an amount corresponding to 1800 mg of EPA-E was orally administered in single dose to each human who had been fasted since 10 hours or more before the administration by using 200 mL of water in the morning under fasting. The blood was collected 0.5, 1, 1.5, 2, 3, 4, 5, 6, 7, 8, 9, 10, 12, 15, 18, 24, 48 and 72 hours after the administration. Immediately after the collection, the blood was cooled on ice, and centrifuged at 2000×g at 4° C. for 10 minutes to separately collect the plasma. After having stored the resulting plasma at a temperature not higher than −20° C. in frozen state, concentration of the EPA in the plasma was measured by LC/MS/MS (method in which a sample is isolated by liquid chromatography, then subjected to mass spectrometry to conduct separation and measurement thereon).
(§2) The capsule having the self-emulsifying composition of the present invention containing 80% by weight of EPA-E as its content was also orally administered to human immediately after meals, and the measurement was conducted by repeating the procedure as described above.
(§3) For the control group, the EPA-E stock solution (high purity EPA-E (at least 96.5% by weight) containing no emulsifier or the like and used with the same EPA-E amount as that of the self-emulsifying composition of the present invention; the same applying hereafter) filled in the capsule was orally administered to human (12 cases, healthy adult males of 20 to 40 years old with a body weight of 55.0 to 77.0 kg and a BMI of 18.5 or more but less than 25.0) under fasting conditions (fasting since at least 10 hours before the administration), and the measurement was conducted by repeating the procedure as described above.
In the calculation of each parameter, correction was made by subtracting the blood EPA concentration before the administration from the measured blood concentration.
The conditions of series [3]: human, in vivo, po, 3600 mg.
Procedure: as §1, §2, §3
This test was conducted on 6 humans. […] In the calculation of each parameter, correction was made by subtracting the blood EPA concentration before the administration from the measured blood concentration.

Read-outs that look alike come from different tables or passages of the source.

Consider `CC/C=C\C/C=C\C/C=C\C/C=C\C/C=C\CCCC(=O)OCC` [Comp. Ex. 5, Ethyl eicosapentaenoate], for which, in series [1], the AUC0-1 was found to be 11300 ng·h/mL, the AUC0-26 is 76600 ng·h/mL and the highest concentration (Cmax) turned out to be 18400 ng/mL. Moreover, in series [2], the AUC0-72 hr came to 113100 ng·h/mL, the highest concentration (Cmax) turned out to be 4600 ng/mL, the time to peak (Tmax) is 10.8 h and the t½ was determined as 71.7 h. In series [3], the AUC0-72 hr turned out to be 113700 ng·h/mL, the Cmax is 3600 ng/mL, the time of peak concentration (Tmax) stood at 21.8 h and the t½ turned out to be 22.8 h.

The record behind these values is patent US10786575B2, “Self-emulsifying composition of Ω3 fatty acid” (priority 2015, dated 2020).
